Experimental data published in US6610710B2, “Phenylalanine derivatives” (Ajinomoto Co., Inc., priority 1999, dated 2003).

Target: T1, integrin α4β7 (RPMI-8866 cells) binding with rat MAdCAM-1/human IgG1 chimera protein (Homo sapiens, UniProt P13612+P26010)
T1 construct: lymphoma cell strain RPMI-8866 of human B cells, known to express integrin α4β7; endogenous in cells; host or cells: RPMI-8866 (human B-cell lymphoma line)
T1 sequence (P13612 34-1032): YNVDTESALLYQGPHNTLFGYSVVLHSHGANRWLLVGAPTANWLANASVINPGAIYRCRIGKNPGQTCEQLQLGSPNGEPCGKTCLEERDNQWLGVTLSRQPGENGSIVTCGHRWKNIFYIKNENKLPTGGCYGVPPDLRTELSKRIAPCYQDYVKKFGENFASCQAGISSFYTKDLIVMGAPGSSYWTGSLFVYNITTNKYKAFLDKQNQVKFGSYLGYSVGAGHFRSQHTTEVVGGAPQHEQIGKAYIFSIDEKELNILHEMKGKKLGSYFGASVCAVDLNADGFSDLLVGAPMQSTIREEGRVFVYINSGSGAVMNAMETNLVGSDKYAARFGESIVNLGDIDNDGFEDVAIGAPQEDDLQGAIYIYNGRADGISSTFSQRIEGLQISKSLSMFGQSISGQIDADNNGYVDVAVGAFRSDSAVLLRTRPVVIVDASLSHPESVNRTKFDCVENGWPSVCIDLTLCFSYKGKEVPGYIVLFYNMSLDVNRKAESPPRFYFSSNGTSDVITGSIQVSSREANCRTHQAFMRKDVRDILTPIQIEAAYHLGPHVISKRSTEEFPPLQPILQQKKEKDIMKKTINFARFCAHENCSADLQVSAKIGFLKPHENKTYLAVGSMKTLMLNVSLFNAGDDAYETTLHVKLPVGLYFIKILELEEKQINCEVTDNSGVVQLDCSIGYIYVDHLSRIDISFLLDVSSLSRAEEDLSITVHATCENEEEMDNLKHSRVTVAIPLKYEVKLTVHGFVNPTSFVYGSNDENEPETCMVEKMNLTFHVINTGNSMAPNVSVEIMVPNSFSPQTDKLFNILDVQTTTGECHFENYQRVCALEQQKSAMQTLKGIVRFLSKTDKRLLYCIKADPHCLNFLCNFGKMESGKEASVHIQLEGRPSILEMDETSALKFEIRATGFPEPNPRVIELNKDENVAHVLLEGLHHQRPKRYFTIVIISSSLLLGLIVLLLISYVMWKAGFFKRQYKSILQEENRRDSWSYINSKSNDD
T1 sequence (P26010 20-798): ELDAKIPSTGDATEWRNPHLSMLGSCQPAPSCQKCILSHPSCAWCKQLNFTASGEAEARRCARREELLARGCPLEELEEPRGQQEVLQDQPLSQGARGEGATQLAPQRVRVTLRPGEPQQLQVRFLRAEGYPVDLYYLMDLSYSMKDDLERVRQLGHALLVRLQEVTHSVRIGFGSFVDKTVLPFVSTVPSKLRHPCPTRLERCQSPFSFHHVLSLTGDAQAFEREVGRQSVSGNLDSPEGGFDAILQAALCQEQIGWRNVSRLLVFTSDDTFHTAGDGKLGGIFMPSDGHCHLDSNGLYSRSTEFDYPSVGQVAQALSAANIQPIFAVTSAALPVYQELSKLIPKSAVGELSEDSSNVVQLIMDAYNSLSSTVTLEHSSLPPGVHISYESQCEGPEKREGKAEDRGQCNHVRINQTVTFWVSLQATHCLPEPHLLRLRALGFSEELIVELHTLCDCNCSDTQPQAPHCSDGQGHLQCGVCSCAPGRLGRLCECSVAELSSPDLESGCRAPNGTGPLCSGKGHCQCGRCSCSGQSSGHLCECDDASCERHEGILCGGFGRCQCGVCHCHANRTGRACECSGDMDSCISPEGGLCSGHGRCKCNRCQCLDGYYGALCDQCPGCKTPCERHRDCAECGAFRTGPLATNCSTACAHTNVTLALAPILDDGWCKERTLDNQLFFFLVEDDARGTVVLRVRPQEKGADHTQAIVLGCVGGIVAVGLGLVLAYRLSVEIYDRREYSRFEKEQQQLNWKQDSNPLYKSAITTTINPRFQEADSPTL
Assay: Rat MAdCAM-1 antagonistic activity (rat MAdCAM-1/α4β7 binding assay), RPMI-8866 cell adhesion
Assay type: cell-based
Conditions: 4 mM MnCl2, read-out: MadCAM/α 4 β 7 antagonistic activity to integrin (IC50)
Method: (Test Example) Rat MAdCAM-1 Antagonistic Activity (rat MAdCAM-1/α4β7 Binding Assay):
The capacity of a test substance antagonistic to the binding of lymphoma cell strain RPMI-8866 of human B cells, known to express integrin α4β7, with rat MAdCAM-1/human IgG1 chimera protein was determined.
100 μl/well of human IgG1 antibody (SIGMA #I-6260) diluted with buffer A to 1/1,000 concentration was added to a micro titer plate having 96 wells. After the incubation at 4° C. overnight, the plate was washed with PBS once. 100 μl/well of rat MAdCAM-1/human IgG1 chimera protein solution diluted with a buffer (buffer C)obtained by diluting Block Ace® (Dainippon Pharmaceutical Co., Ltd.) with PBS to 1/10 concentration was added in an amount of 100 μl/well. After the incubation at 37° C. for 2 hours, unbound MAdCAM-1/IgG was removed by washing once with PBS. After completion of the washing, 150 μl/well of buffer B was added and the incubation was continued at room temperature for 1 hour. Buffer B was removed and then the plate was washed with PBS once.
RPMI-8866 cells were incubated in DMEM containing 10 μg/ml of Calcein-AM at 37° C. for 30 minutes to label them with fluorescence. The cells were again suspended in a binding buffer containing 4 mM of MnCl2.
50 μl of a test substance of various concentrations obtained by the dilution with the binding buffer was added to the plate. Immediately thereafter, 50 μl (final volume: 100 μl/well) of the fluorescent RPMI-8866 cells (4×10^6 cells/ml ) were added thereto, and they were incubated at room temperature for 30 minutes. After the shaking on a plate shaker (IKA MTS-4) at 800 rpm for 30 seconds, the solution was immediately removed to remove the unbound cells. The fluorescence quantity of the bound cells remaining in the wells was determined with a fluorescent plate reader (Wallac 1420 ARVO multi-label counter). The fluorescent strength thus obtained is proportional to the number of RPMI-8866 cells bound to MAdCAM-1 and remaining on the plate. The binding rate of each test material in various concentrations was determined while the fluorescent strength of the test material-free well was determined to be 100%. The concentration IC50 for the 50% binding inhibition was calculated.

SMILES | IC50 [nM]
COc1cccc(OC)c1-c1ccc(C[C@H](NC(=O)[C@H]2CC[C@H](C(=O)O)CC2)C(=O)O)cc1 [Example 50, N-(Trans-4-carboxycyclohexane-1-carbonyl)-4-(2,6-dimethoxyphenyl)-L-phenylalanine] | 1000 to 5000
COc1ccc(NNC(=O)[C@H]2CC[C@H](C(=O)N[C@@H](Cc3ccc(NC(=O)c4snnc4-c4ccccc4)cc3)C(=O)O)CC2)cc1 [Example 46, N-[Trans-4-(4-methoxyphenylhydrazinocarbonyl)cyclohexane-1-carbonyl]-4-{[(4-phenyl-1,2,3-thiadiazole-5-yl)carbonyl]amino}-L-phenyl-alanine] | 1000 to 5000
COc1ccc(NNC(=O)[C@H]2CC[C@H](C(=O)N[C@@H](Cc3ccc(-c4c(OC)cccc4OC)cc3)C(=O)O)CC2)cc1 [Example 51, N-[Trans-4-(4-methoxyphenylhydrazinocarbonyl)cyclohexane-1-carbonyl]-4-(2,6-dimethoxyphenyl)-L-phenylalanine] | 200 to 1000
O=C(Nc1ccc(C[C@H](NC(=O)[C@H]2CC[C@H](C(=O)O)CC2)C(=O)O)cc1)c1snnc1-c1ccccc1 [Example 45, N-(Trans-4-carboxycyclohexane-1-carbonyl)-4-{[(4-phenyl-1,2,3-thiadiazole-5-yl)carbonyl]amino}-L-phenylalanine] | 1000 to 5000
O=C(O)[C@H](Cc1ccc(OCc2c(Cl)cccc2Cl)cc1)NC(=O)[C@H]1CC[C@H](C(=O)O)CC1 [Example 2, N-(Trans-4-carboxycyclohexane-1-carbonyl)-O-(2,6-dichlorobenzyl)-L-tyrosine] | ≤ 200
O=C(O)[C@H](Cc1ccc(OCc2c(Cl)cccc2Cl)cc1)NC(=O)[C@H]1CC[C@H](C(=O)NCc2ccccc2)CC1 [Example 6] | 1000 to 5000

Other lines, results leading:

IC50 [nM] | SMILES
200 to 1000 | O=C(O)[C@H](Cc1ccc(OCc2c(Cl)cccc2Cl)cc1)NC(=O)[C@H]1CC[C@H](C(=O)NNc2ccccc2)CC1 [Example 3, N-(Trans-4-phenylhydrazinocarbonylcyclohexane-1-carbonyl)-O-(2,6-dichlorobenzyl)-L-tyrosine]
200 to 1000 | Cc1ccc(NNC(=O)[C@H]2CC[C@H](C(=O)N[C@@H](Cc3ccc(OCc4c(Cl)cccc4Cl)cc3)C(=O)O)CC2)cc1 [Example 34]
200 to 1000 | O=C(O)[C@H](Cc1ccc(OCc2c(Cl)cccc2Cl)cc1)NC(=O)[C@H]1CC[C@H](C(=O)NNc2ccc(Br)cc2)CC1 [Example 4, N-[Trans-4-(4-bromophenylhydrazinocarbonyl)cyclohexane-1-carbonyl]-O-(2,6-dichlorobenzyl)-L-tyrosine]
200 to 1000 | COc1ccc(NNC(=O)[C@H]2CC[C@H](C(=O)N[C@@H](Cc3ccc(OCc4c(Cl)cccc4Cl)cc3)C(=O)O)CC2)cc1 [Example 14]
200 to 1000 | COc1cccc(NNC(=O)[C@H]2CC[C@H](C(=O)N[C@@H](Cc3ccc(OCc4c(Cl)cccc4Cl)cc3)C(=O)O)CC2)c1 [Example 44]
1000 to 5000 | O=C(O)[C@H](Cc1ccc(OCc2c(Cl)cccc2Cl)cc1)NC(=O)[C@H]1CC[C@H](C(=O)NNc2ccc(OC(F)(F)F)cc2)CC1 [Example 35]
